Measured values taken from publication PMC7655065, “Effect of 3-subsitution of quinolinehydroxamic acids on selectivity of histone deacetylase isoforms” (Journal of Enzyme Inhibition and Medicinal Chemistry, 2020).
Read-outs that look alike come from different tables or passages of the source.

Columns and labels:
A549 cells [1] = assay: Sulforhodamine B antiproliferative assay, A549; format: cell-based; details: Homo sapiens
Description: (§1) All human cancer cells were maintained in RPMI 1640 medium supplemented with 10% FBS and penicillin (100 units/ml)/streptomycin (100 µg/ml)/amphotericin B (0.25 µg/ml). All cells were maintained in humidified air containing 5% CO2 at 37 °C and cultured every 2–3 days. […]
(§2) Cells were seeded at the density of 5000 cells/well into 96-plate overnight. Basal cells were fixed with 10% trichloroacetic acid (TCA) to represent the cell population at the time of compound addition (T0). After additional incubation of DMSO (C) or different doses of test compounds (Tx) for 48 h, cells were fixed with 10% TCA and stained with SRB at 0.4% (w/v) in 1% AcOH. Unbound SRB was washed out using 1% AcOH and SRB bound cells were solubilised with 10 mM Trizma base. The absorbance was read at a wavelength of 515 nm. The 50% growth inhibition (GI50) was calculated by 100 − [(Tx – T0)/(C – T0)] × 100.

HCT116 cells = assay: Sulforhodamine B antiproliferative assay, HCT116; format: cell-based; details: Homo sapiens, HCT-116, SRB, 48 h, values > 10 μM estimated from best curve fitting
Description: as §1, §2

HDAC1 = biological target: T1, HDAC1 (Homo sapiens, UniProt Q13547); assay: HDAC biochemical assay (Fluor-de-Lys), HDAC1; details: for IC50: human recombinant HDAC1, values > 10 μM estimated from best curve fitting; for Selectivity ratio of HDAC1 over HDAC6: IC50 HDAC1 / IC50 HDAC6
T1 construct: EurofinPanlabs (Taipei, Taiwan)

HDAC2 = biological target: T2, HDAC2 (Homo sapiens, UniProt Q92769); assay: HDAC biochemical assay (Fluor-de-Lys), HDAC2; details: for IC50: human recombinant HDAC2, dash = no inhibition or activity that could not be fitted to an IC50 curve; for Selectivity ratio of HDAC2 over HDAC6: IC50 HDAC2 / IC50 HDAC6
T2 construct: EurofinPanlabs (Taipei, Taiwan)

HDAC6 = biological target: T3, HDAC6 (Homo sapiens, UniProt Q9UBN7); assay: HDAC biochemical assay (Fluor-de-Lys), HDAC6; details: human recombinant HDAC6
T3 construct: EurofinPanlabs (Taipei, Taiwan)
T3 sequence (Q9UBN7 1-1215): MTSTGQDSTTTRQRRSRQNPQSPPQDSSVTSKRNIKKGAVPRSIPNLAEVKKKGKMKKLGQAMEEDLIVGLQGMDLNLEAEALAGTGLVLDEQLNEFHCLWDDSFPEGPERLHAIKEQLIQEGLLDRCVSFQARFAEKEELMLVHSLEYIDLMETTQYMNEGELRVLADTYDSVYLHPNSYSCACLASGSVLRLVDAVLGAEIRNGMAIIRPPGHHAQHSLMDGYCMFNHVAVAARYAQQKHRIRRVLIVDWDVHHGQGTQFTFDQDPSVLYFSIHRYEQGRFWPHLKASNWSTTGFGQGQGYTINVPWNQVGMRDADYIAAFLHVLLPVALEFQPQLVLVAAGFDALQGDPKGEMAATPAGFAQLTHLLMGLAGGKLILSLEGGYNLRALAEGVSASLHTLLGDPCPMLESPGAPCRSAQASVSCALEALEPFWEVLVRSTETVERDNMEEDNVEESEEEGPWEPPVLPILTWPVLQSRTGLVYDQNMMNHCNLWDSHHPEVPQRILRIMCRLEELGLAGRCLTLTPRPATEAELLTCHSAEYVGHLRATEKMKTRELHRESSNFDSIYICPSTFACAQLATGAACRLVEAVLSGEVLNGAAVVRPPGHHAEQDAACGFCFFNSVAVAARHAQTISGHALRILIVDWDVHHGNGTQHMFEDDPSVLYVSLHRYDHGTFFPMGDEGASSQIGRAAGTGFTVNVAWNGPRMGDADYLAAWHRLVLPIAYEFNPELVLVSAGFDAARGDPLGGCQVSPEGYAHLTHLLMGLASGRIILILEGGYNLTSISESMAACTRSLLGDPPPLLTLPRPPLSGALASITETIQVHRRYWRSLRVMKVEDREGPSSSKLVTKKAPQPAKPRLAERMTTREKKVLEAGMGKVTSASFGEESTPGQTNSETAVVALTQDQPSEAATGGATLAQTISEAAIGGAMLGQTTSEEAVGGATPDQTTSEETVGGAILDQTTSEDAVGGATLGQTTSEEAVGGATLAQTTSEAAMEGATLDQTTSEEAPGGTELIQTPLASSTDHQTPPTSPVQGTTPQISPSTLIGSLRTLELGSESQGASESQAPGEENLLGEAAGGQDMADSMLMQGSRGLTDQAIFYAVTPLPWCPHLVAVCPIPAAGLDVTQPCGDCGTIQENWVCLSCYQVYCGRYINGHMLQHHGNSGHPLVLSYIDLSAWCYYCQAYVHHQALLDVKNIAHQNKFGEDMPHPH

HDAC8 = biological target: T4, HDAC8 (Homo sapiens, UniProt Q9BY41); assay: HDAC biochemical assay (Fluor-de-Lys), HDAC8; details: for IC50: human recombinant HDAC8; for Selectivity ratio of HDAC8 over HDAC6: IC50 HDAC8 / IC50 HDAC6
T4 construct: EurofinPanlabs (Taipei, Taiwan)
T4 sequence (Q9BY41 1-377): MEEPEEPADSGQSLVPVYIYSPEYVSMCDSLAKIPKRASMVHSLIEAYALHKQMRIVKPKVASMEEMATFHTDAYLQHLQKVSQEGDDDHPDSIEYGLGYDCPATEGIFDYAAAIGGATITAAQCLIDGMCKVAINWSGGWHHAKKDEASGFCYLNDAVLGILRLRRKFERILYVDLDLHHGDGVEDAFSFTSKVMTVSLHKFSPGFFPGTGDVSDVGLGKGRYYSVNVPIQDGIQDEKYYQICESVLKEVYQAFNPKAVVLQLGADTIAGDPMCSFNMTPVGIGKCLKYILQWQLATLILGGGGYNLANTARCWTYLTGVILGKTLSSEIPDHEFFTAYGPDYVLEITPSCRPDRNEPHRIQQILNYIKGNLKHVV

A549 cells [2] = assay: Western blot analysis of apoptosis and DNA damage markers; format: cell-based, human
Description: buffer (20 mMTris-HCl pH 7.5, 150 mM NaCl, 1 mM Na2EDTA, 1 mM EGTA, 1% NP-40, 1% sodium deoxycholate, 0.1% SDS, 2.5 mM β-glycerylphosphate, 1 mM Na4P2O7, 5 mM NaF, 1 mM Na3VO4 and protease inhibitor cocktail from Millipore) on ice for 30 min following by centrifugation at 13000 rpm for 30 min. Protein concentrations were determined and equal amounts of protein were separated by 8–15% sodium dodecyl sulphate-polyacrylamide gel electrophoresis (SDS–PAGE) and transferred to poly(vinylidene difluoride) (PVDF) membranes. Membranes were immunoblotted with specific antibodies overnight at 4 °C and then applied to appropriate horseradish peroxidase-conjugated anti-mouse or anti-rabbit IgG secondary antibodies for 1 h at RT. Signals were detected using an enhanced chemiluminescence (Amersham, Buckinghamshire, UK).

A549 cells [3] = assay: Flow cytometry cell cycle analysis; format: cell-based, human; details: A549 cells, 0.25, 0.5, 10 μM, 48 h, propidium iodide
Description: Briefly, A549 cells were starved with EBM-2 medium overnight and were subsequently replenished with EGM-2 medium with or without 17, 25, and 26 (0.25, 0.5, 10 µM) for 48 h. After being trypsinized and fixed in ice-cold 75% MeOH for 1 h at −20 °C, A549 cells were washed with PBS and resuspended in 0.2 ml DNA extraction buffer (0.2 M Na2HPO4, 0.1 M citric acid; pH 7.8) for 30 min. Then the cells were stained with propidium iodide solution (PI; 100 µg/ml RNase, 80 µg/ml propidium iodide, 0.1% Triton X-100) in PBS. FACScan flow cytometry was utilised to determine cell cycle distribution, and data analysis was performed with CellQuest software (BD Biosciences).

[4] = A549 cells, SRB, 48 h, values > 10 μM estimated from best curve fitting, read-out: Antiproliferative activity IC50, A549

T1 sequence (Q13547 whole entry): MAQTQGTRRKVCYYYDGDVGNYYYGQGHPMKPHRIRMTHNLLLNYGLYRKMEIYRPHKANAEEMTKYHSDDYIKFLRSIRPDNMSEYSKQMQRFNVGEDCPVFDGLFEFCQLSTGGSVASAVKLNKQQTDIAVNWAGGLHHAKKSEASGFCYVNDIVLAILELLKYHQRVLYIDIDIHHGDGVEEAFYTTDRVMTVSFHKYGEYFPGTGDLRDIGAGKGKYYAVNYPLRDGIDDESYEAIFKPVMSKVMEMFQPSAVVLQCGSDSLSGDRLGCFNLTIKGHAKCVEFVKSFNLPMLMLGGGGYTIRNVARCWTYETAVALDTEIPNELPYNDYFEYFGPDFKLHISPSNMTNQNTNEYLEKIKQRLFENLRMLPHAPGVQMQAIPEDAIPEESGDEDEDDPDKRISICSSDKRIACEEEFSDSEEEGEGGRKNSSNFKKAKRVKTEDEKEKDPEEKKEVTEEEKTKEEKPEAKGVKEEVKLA
T2 sequence (Q92769 whole entry): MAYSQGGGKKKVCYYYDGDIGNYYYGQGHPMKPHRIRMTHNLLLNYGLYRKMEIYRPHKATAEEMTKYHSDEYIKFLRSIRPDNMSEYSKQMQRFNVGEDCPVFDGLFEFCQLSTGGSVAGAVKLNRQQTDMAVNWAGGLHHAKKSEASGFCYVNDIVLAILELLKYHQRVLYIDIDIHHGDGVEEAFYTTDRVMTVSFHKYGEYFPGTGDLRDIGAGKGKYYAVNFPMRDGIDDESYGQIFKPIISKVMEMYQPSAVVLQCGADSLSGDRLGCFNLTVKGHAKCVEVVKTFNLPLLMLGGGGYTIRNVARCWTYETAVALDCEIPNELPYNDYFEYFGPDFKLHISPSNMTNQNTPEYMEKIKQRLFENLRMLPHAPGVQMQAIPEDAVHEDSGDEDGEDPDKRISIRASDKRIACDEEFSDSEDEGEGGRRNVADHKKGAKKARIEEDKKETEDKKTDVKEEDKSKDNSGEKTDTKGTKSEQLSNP

## COc1cnc2c(NCc3ccc(C(=O)NO)cc3)cccc2c1 [Compound 17, N-Hydroxy-4-[(3-methoxy-quinolin-8-ylamino)-methyl]-benzamide]
A549 cells [1]; [4]
  IC50: 3.11 ± 0.24 µM
HCT116 cells
  IC50: 4.76 ± 0.43 µM
HDAC1
  IC50: 4.95 µM
HDAC2
  IC50: > 10 µM
HDAC6
  IC50: 0.00779 µM
HDAC8
  IC50: 2.76 µM
A549 cells [2]; A549 cells, 48 h, comparison among the three tested compounds
  Rank of efficacy in cleaving caspase isoforms (Western blot): least potent amongst these three compounds

## O=C(NO)c1ccc(CNc2cccc3cc(Cl)cnc23)cc1 [Compound 14, 4-[(3-Chloro-quinolin-8-ylamino)-methyl]-N-hydroxy-benzamide]
A549 cells [1]; [4]
  IC50: 3.14 ± 0.31 µM
HCT116 cells
  IC50: 4.82 ± 0.29 µM
HDAC1
  IC50: 4.32 µM
HDAC6
  IC50: 0.0202 µM
HDAC8
  IC50: 3.64 µM

## O=C(NO)c1ccc(CNc2cccc3cc(-c4cccnc4)cnc23)cc1 [Compound 25, N-Hydroxy-4-(((3-(pyridin-3-yl)quinolin-8-yl)amino)methyl)benzamide]
A549 cells [1]; [4]
  IC50: 1.29 ± 0.41 µM
A549 cells [1]; range over both cell lines (A549 and HCT116) and both compounds, abstract, read-out: IC50 values against A549 and HCT116 cells
  IC50: 1.29 to 2.13 µM
HCT116 cells
  IC50: 1.61 ± 0.22 µM
HDAC1
  Selectivity ratio of HDAC1 over HDAC6: (552)
  IC50: 2.62 µM
HDAC2
  Selectivity ratio of HDAC2 over HDAC6: (276)
  IC50: 1.31 µM
HDAC6
  IC50: 0.00475 µM
HDAC8
  Selectivity ratio of HDAC8 over HDAC6: (379)
  IC50: 1.8 µM
A549 cells [2]; A549 cells treated for 48 h, 0.25, 5 and 10 µM
  Caspase 3, 8, and 9 cleavage (Western blot): dose dependent increases in caspase 3, 8, and 9 cleavage
A549 cells [3]
  Cell cycle distribution, sub G1 population: concentration dependent accumulation of A549 cells in sub G1 phase

## O=C(NO)c1ccc(CNc2cccc3cc(Br)cnc23)cc1 [Compound 15, 4-[(3-Bromo-quinolin-8-ylamino)-methyl]-N-hydroxy-benzamide]
A549 cells [1]; [4]
  IC50: > 10 µM
HCT116 cells
  IC50: > 10 µM

## O=C(NO)c1ccc(CNc2cccc3cc(-c4ccco4)cnc23)cc1 [Compound 27, 4-(((3-(Furan-2-yl)quinolin-8-yl)amino)methyl)-N-hydroxybenzamide]
A549 cells [1]; [4]
  IC50: 3.18 ± 0.19 µM
HCT116 cells
  IC50: 2.2 ± 0.17 µM
HDAC1
  Selectivity ratio of HDAC1 over HDAC6: (164)
  IC50: 3.4 µM
HDAC2
  Selectivity ratio of HDAC2 over HDAC6: (62)
  IC50: 1.28 µM
HDAC6
  IC50: 0.0207 µM
HDAC8
  Selectivity ratio of HDAC8 over HDAC6: (152)
  IC50: 3.14 µM

## O=C(NO)c1ccc(CNc2cccc3cc(-c4ccoc4)cnc23)cc1 [Compound 28, 4-(((3-(Furan-3-yl)quinolin-8-yl)amino)methyl)-N-hydroxybenzamide]
A549 cells [1]; [4]
  IC50: 3.77 ± 0.28 µM
HCT116 cells
  IC50: 3.77 ± 0.21 µM
HDAC1
  Selectivity ratio of HDAC1 over HDAC6: (343)
  IC50: 4.59 µM
HDAC2
  Selectivity ratio of HDAC2 over HDAC6: (157)
  IC50: 2.1 µM
HDAC6
  IC50: 0.0134 µM
HDAC8
  Selectivity ratio of HDAC8 over HDAC6: (216)
  IC50: 2.91 µM

## N#Cc1ccc(-c2cnc3c(NCc4ccc(C(=O)NO)cc4)cccc3c2)cc1 [Compound 23, 4-(((3–(4-Cyanophenyl)quinolin-8-yl)amino)methyl)-N-hydroxybenzamide]
A549 cells [1]; [4]
  IC50: 3.64 ± 0.66 µM
HCT116 cells
  IC50: 3.5 ± 0.32 µM
